Test results published in US20250221953A1 (The University of Chicago, priority 2022, published 2025).
Where two headings read alike, the source gives them in different places.

Test system: Jurkat T cells
Assay type: cell-based, human
Settings: IL-2 production level in treated group compared to control group, 48 hours treatment, then anti-CD3/anti-CD28 12 hours
Text: Two preliminary screens were designed and performed.
To construct “blood chemical compound library for cell-based screening purposes, components such as antibodies that are difficult to distinguish due to a wide variety, and some supplements that only function at a whole organism level including fish oils and herbs were excluded. Physiological ranges of serum levels of individual blood chemicals are available in the human metabolome database (https://hmdb.ca/) and applied in the experimental design. For first screen 1a, Jurkat T cells were treated with blood chemical library for 48 hours and then activated with 2.5 μg/mL anti-CD3 and 0.5 μg/mL anti-CD28 antibodies for another 12 hours, followed by measurement of IL-2 level in medium supernatant using ELISA kit (Biolegend). For first screen 1b, 1×10^5 PD-1^+ Jurkat T cells were co-cultured with 2×10^4 H596 (PD-L1^+) cells in a well of 96-well plate for 60 hours, and then activated with 2.5 μg/mL anti-CD3 and 0.5 μg/mL anti-CD28 antibodies for another 12 hours, followed by measurement of IL-2 level in medium supernatant using ELISA kit. Please also refer to Resources Table and Table 1-2 for more details.

Row | Compound | Relative changed percentage (%) | Relative changed percentage (%) (Hydrochloride)
1 | CC[N+](CC)(CC)CC.O=S(=O)([O-])O | −35.95% | 
2 | 2-DEOXY-L-RIBOSE/Deoxycytidine | 36.7% | 
3 | O=C(O)CCCCC1CCSS1 (racemic) [DL-6,8-Thioctic Acid] | −4.135% | 
4 | O=C(O)CC(O)C(=O)O (racemic) [DL-MALIC ACID] | 40.01% | 
5 | CC(O)CC(=O)O (stereo not shown) [3-HYDROXYBUTYRIC ACID] | 5.082% | 
6 | Cl.NCCc1ccc(O)c(O)c1 [3-HYDRO[…]/dopamine, 3-HYDRO[…]] | 18.78% | 
7 | C[C@]12CCC(=O)C[C@@H]1CC[C@@H]1[C@@H]2CC[C@]2(C)[C@@H](O)CC[C@@H]12 [5ALPHA-DIHYDROTESTOSTERONE (DIIT)/DIIT, 5ALPHA-DIHYDROTESTOSTERONE] | −3.457% | 
8 | C[C@]12CCC(=O)C=C1CC[C@@H]1[C@@H]2CC[C@@]2(C)[C@H]1CC[C@]2(O)C(=O)CO [11-DEOXYCORTISOL/Cortexolone, 11-DEOXYCORTISOL] | 21.85% | 
9 | CC(=O)[C@@]1(O)CC[C@H]2[C@@H]3CCC4=CC(=O)CC[C@]4(C)[C@H]3CC[C@@]21C [17A-HYDROXYPROGESTERONE] | 41.36% | 
10 | Cc1cc(O)cc2c1O[C@](C)(CCC[C@H](C)CCC[C@H](C)CCCC(C)C)CC2 [(+)-DELTA-TOCOPHEROL] | 41.42% | 
11 | Cc1c(O)cc2c(c1C)O[C@](C)(CCC[C@H](C)CCC[C@H](C)CCCC(C)C)CC2 [(+)-GAMMA-TOCOPHEROL] | 1.56% | 
12 | Cl.NCCc1c[nH]c2ccc(O)cc12 [-HYDROXYTRYPTAMINE HYDROCHLORIDE] | −22.39% | 
13 | CC1=CCCC(C)(C)C1/C=C/C(C)=C/C=C/C(C)=C/C=C/C=C(C)/C=C/C=C(C)/C=C/C1=C(C)CCCC1(C)C (stereo not shown) [A-CAROTENE] | 6.561% | 
14 | CC1=C[C@H](O)CC(C)(C)C1/C=C/C(C)=C/C=C/C(C)=C/C=C/C=C(C)/C=C/C=C(C)/C=C/C1=C(C)CCCC1(C)C (stereo partly shown) [A-CRYPTOXANTHIN] | 29.1% | 
15 | CC(C)=O [ACETONE] | −31.07% | 
16 | CC(=O)OCC[N+](C)(C)C.[Cl-] [ACE[…]] | −8.939% | 
17 | Nc1ncnc2c1ncn2[C@@H]1O[C@H](CO)[C@@H](O)[C@H]1O [ADENOSINE FREE BASE] | 3.704% | 
18 | CCO [ALCOHOL] | 9.841% | 
19 | C[C@]12CCC(=O)C=C1CC[C@@H]1[C@@H]2CC[C@]2(C)C(=O)CC[C@@H]12 [ANDROSTENEDIONE] | 25.93% | 
20 | CC[C@H](C)[C@H](NC(=O)[C@H](Cc1ccc(O)cc1)NC(=O)[C@@H](NC(=O)[C@H](CCCNC(=N)N)NC(=O)[C@@H](N)CC(=O)O)C(C)C)C(=O)N[C@@H](Cc1cnc[nH]1)C(=O)N1CCC[C@H]1C(=O)N[C@@H](Cc1ccccc1)C(=O)O [ANGIOTENSIN II HUMAN] | 17.25% | 
21 | Nc1ncnc2c1ncn2[C@@H]1O[C@H](COP(=O)([O-])OP(=O)([O-])OP(=O)(O)O)[C@@H](O)[C@H]1O.[Na+].[Na+] [Adenosine 5′-Triphosphate Disodium] | −38.28% | 
22 | CC/C=C\C/C=C\C/C=C\CCCCCCCC(=O)O [Alpha-linolenic acid] | −24.53% | 

Row | Compound | Relative changed percentage (%) | Relative changed percentage (%) (Hydrochloride)
23 | CCCCC/C=C\C/C=C\C/C=C\C/C=C\CCCC(=O)O [Arachidonic acid] | 4.583% | 
24 | CC1=C(/C=C/C(C)=C/C=C/C(C)=C/C=C/C=C(C)/C=C/C=C(C)/C=C/C2=C(C)C(=O)[C@@H](O)CC2(C)C)C(C)(C)C[C@H](O)C1=O [Astaxanthin] | 12.26% | 
25 | CC1=C(/C=C/C(C)=C/C=C/C(C)=C/C=C/C=C(C)/C=C/C=C(C)/C=C/C2=C(C)C[C@@H](O)CC2(C)C)C(C)(C)CCC1 [BETA-CRYPTOXANTHIN] | 24.88% | 
26 | C[N+](C)(C)CC(=O)O [BETAINE] | −18.83% | 
27 | O=C(O)CCCC[C@@H]1SC[C@@H]2NC(=O)N[C@@H]21 [BIOTIN, POWDER,, BIOTIN] | 36.45% | 
28 | [Cl][Cd][Cl] [CADMIUM CIILORIDE/cadmium, CADMIUM CIILORIDE] | 32.11% | 
29 | C=C1CC[C@H](O)C/C1=C/C=C1\CCC[C@]2(C)[C@@H]([C@H](C)CCCC(C)C)CC[C@@H]12 [CHOLECALCIFEROL CRYSTALLINE, CHOLECALCIFEROL] | 25.45% | 
30 | CC(C)CCC[C@@H](C)[C@H]1CC[C@H]2[C@@H]3CC=C4C[C@@H](O)CC[C@]4(C)[C@H]3CC[C@]12C [CHOLESTEROL] | −31.89% | 
31 | O=S(=O)([O-])[O-].[Cu+2] [COPPER(II) SULFATE, ANHYDROUS,/copper, COPPER(II) SULFATE, ANHYDROUS] | 51.65% | 
32 | C[C@]12CCC(=O)C=C1CC[C@@H]1[C@@H]2C(=O)C[C@@]2(C)[C@H]1CC[C@]2(O)C(=O)CO [CORTISONE] | −12.29% | 
33 | Nc1cc[nH]c(=O)n1 [CYTOSINE] | 74.6228% | 
34 | O=C(/C=C/c1ccc(O)c(O)c1)OCCc1ccccc1 [Caffeic acid phenethyl ester] | 43.85% | 
35 | Cn1c(=O)c2c(ncn2C)n(C)c1=O [Caffeine] | 170.0384% | 
36 | O=C([O-])[O-].[Ca+2] [Calcium Carbonate] | −8.75% | 
37 | O=C([O-])CC(O)(CC(=O)[O-])C(=O)[O-].O=C([O-])CC(O)(CC(=O)[O-])C(=O)[O-].[Ca+2].[Ca+2].[Ca+2] [Calcium citrate] | −14.58% | 
38 | O=C([O-])[C@@H](O)[C@@H](O)[C@H](O)[C@@H](O)C(=O)[O-].[Ca+2] [Calcium d-glucarate] | −12.14% | 
39 | COc1cc(CNC(=O)CCCC/C=C/C(C)C)ccc1O [Capsaicin] | 1.661% | 
40 | C[N+](C)(C)CCO.[Cl-] [Choline Chloride] | −41.11% | 
41 | [Cl][Cr]([Cl])[Cl] [Chromium Chloride] | −35.28% | 
42 | O=C(O)CC(O)(CC(=O)O)C(=O)O [Citric Acid] | −36.8% | 
43 | COC1=C(OC)C(=O)C(C/C=C(\C)CC/C=C(\C)CC/C=C(\C)CC/C=C(\C)CC/C=C(\C)CC/C=C(\C)CC/C=C(\C)CC/C=C(\C)CC/C=C(\C)CCC=C(C)C)=C(C)C1=O [CoQ-10] | 26.54% | 
44 | CCCCC[C@H](O)CC(=O)CCc1ccc(O)c(OC)c1 [Compound 6-gingerol, 6-gingerol] | 42.62% | 

Row | Compound | Relative changed percentage (%) | Relative changed percentage (%) (Hydrochloride)
45 | O=S(=O)([O-])[O-].[Cu+2] [Copper sulfate] | −26.32% | 
46 | CN(CC(=O)O)C(=N)N [Creatine] | −40.99% | 
47 | O=C(CO)[C@@H](O)[C@H](O)[C@H](O)CO [D(−)FRUCTOSE] | −25.52% | 
48 | Cl.N[C@H]1C(O)O[C@H](CO)[C@@H](O)[C@@H]1O (stereo partly drawn) [D-(+)-Glucosamine Hydrochloride] |  | −38.23%
49 | O=C[C@H](O)[C@@H](O)[C@H](O)[C@H](O)C(=O)O [D-Glucuronic Acid] | −45.8% | 
50 | O.OC[C@H]1O[C@@H](O[C@H]2[C@H](O)[C@@H](O)C(O)O[C@@H]2CO)[C@H](O)[C@@H](O)[C@H]1O (stereo partly drawn) [D-LACTOSE MONOHYDRATE] | 22.47% | 
51 | N[C@H]1C(O)O[C@H](CO)[C@@H](O)[C@@H]1OS(=O)(=O)O (stereo partly drawn) [D-glucosamine 3-sulfate] | 9.801% | 
52 | O=P([O-])([O-])O.[K+].[K+] [Dipotassium Phosphate] | −5.393% | 
53 | CC/C=C\C/C=C\C/C=C\C/C=C\C/C=C\C/C=C\CCC(=O)O [Docosahexaenoic Acid] | −29.89% | 
54 | CC/C=C\C/C=C\C/C=C\C/C=C\C/C=C\CCCCCC(=O)O [Docosapentaenoic acid] | −19.39% | 
55 | C=C1CC[C@H](O)C/C1=C/C=C1\CCC[C@]2(C)[C@@H]([C@H](C)/C=C/[C@H](C)C(C)C)CC[C@@H]12 [ERGOCALCIFEROL] | 16.01% | 
56 | C[C@]12CC[C@@H]3c4ccc(O)cc4CC[C@H]3[C@@H]1C[C@@H](O)[C@@H]2O [ESTRIOL] | 2.789% | 
57 | C[C@]12CC[C@@H]3c4ccc(O)cc4CC[C@H]3[C@@H]1CCC2=O [ESTRONE] | 25.0199% | 
58 | CCCCCCCC/C=C\CCCCCCCCCCCC(=O)O [Erucic acid] | 10.71% | 
59 | NS(=O)(=O)c1cc(C(=O)O)c(NCc2ccco2)cc1Cl [FUROSEMIDE/LASIX, FUROSEMIDE, reference compound] | 29.01% | 
60 | O=C([O-])/C=C/C(=O)[O-].[Fe+2] [Ferrous Fumarate] | 6.278% | 
61 | OCC(O)CO [GLYCEROL MOLECULAR BIOLOGY REAGENT, GLYCEROL] | 39.3621% | 
62 | Cl.N=C(N)N [GUANIDINE IIYDROCIILORIDE,, GUANIDINE IIYDROCIILORIDE] | 41.83% | 
63 | Nc1nc2c(ncn2[C@@H]2O[C@@H]3COP(=O)([O-])O[C@H]3[C@H]2O)c(=O)[nH]1.[Na+] [GUANOSINE 3′:5′-CYCLIC MONOPIIOSPIIATE SODIUM] | 8.266% | 
64 | CCCCC/C=C\C/C=C\C/C=C\CCCCC(=O)O [Gamma linolenic acid] | 9.058% | 
